Assay results: US20240216354A1, “IMMUNOMODULATORY IMIDE DRUGS AS ZETA-CHAIN-ASSOCIATED PROTEIN KINASE 70 (ZAP70) AGONISTS AND USES THEREOF” (Dana-Farber Cancer Institute, Inc., priority 2019, published 2024)

System: U266 cells
Test: KHYG-1 NK cell cytotoxicity against calcein-AM-labeled U266 cells
Format: cell-based
Settings: KHYG-1 cells, pomalidomide 0.25-1 μM 24 h, then 4 h with U266 at indicated E/T ratios
Method: KHYG-1 cells were cultured with pomalidomide (0.25-1 μM) for 24 h. (A) Whole cell lysates were subjected to immunoblotting using indicated Abs. (B) KHYG-1 cells were incubated with calcein-AM-stained U266 cells for 4 h at the indicated effector/target (E/T) ratios. Percent specific lysis was calculated as described previously. (C) KHYG-1 cells were transfected with Scsi or Zap-70si, and then cultured with pomalidomide (0.25 μM) for 72 h in the absence of IL-2. Viable cell number was determined, and cells were then incubated with calcein AM-labeled U266 target cells for 4 h at indicated effector/target (E/T) ratios. Percent specific lysis was calculated as described previously. […] Cell growth was assessed by MTT assay. […] Percent specific lysis was calculated as previously described.
(A) KHYG-1 cells were transfected with Scsi or CRBNsi. […] Cells were counted and incubated with calcein AM-labeled U266 for 4 h at indicated effector/target (E/T) ratios.
(A, B) KHYG-1 cells were transfected with scrambled (Sc) or Zap-70 siRNAs, and then cultured for 72 h with lenalidomide (0.5 μM), in the absence of IL-2 (A) The viable cell number was measured by trypan-blue dye exclusion. […] Percent specific lysis was calculated as described previously. *: p<0.01 compared with Scsi.
KHYG-1 cells were transfected with scrambled (Sc) or IKZF3 siRNAs. […] Percent specific lysis was calculated as previously described. […]

Nc1cccc2c1C(=O)N(C1CCC(=O)NC1=O)C2=O (stereo not shown) [pomalidomide]
cytotoxicity against U266 cells (percent specific lysis): increased their cytotoxicity against U266 cells in a dose-dependent fashion
